Measured values from patent US8735388B2, “Heterocyclic compounds with affinity to muscarinic receptors” (Abbvie B. V. A., priority 2007, dated 2014).
pEC50, pKi: −log10 of the molar value. Where two headings read alike, the source gives them in different places.

Key:
[1] = molecular target: T1, Muscarine M3 (GPCR-A-MA-ACH M3) (Cavia porcellus, UniProt H0W1Z3); experiment: Muscarine M3 functional assay, isolated organ (ileum), agonist and antagonist mode; parameters: species or system Guinea Pig; conditions: for EC50: read-out: Cell funct. Musc. M3 Agonism pEC50 (converted)
T1 construct: from tissue; host or cells: guinea pig ileum

[2] = molecular target: T2, Muscarine M4 (GPCR-A-MA-ACH M4) (Homo sapiens, UniProt P08173); experiment: Muscarine M4 receptor binding, 3H-Oxotremorine; conditions: for Ki: human M4, CHO cells, receptor binding, ligand 6 nM, 30 min/25° C., read-out: RB Musc. M4 3H-Oxotremorine pKi (converted)
T2 construct: expressed in transfected cells; host or cells: CHO cells
T2 sequence (P08173 1-479): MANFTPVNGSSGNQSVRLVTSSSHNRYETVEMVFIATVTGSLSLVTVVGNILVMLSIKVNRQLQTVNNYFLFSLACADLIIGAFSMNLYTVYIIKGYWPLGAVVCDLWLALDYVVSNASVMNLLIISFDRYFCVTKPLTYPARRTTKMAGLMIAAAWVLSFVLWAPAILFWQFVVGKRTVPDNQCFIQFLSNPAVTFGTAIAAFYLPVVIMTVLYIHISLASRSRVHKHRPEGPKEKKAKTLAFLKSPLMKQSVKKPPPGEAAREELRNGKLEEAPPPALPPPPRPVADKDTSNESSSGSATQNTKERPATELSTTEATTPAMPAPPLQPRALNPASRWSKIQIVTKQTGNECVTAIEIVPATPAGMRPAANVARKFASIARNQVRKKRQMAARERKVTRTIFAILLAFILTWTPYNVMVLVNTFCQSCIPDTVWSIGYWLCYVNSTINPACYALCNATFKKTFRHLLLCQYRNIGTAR
Protocol: (§1) Compounds were dissolved in DMSO (10 mM) and diluted in assay buffer to test concentration. Prime testing was at 10 μM; for actives (PI, percent inhibition with respect to total and non-specific binding >40%) testing was continued at lower concentrations in 10-fold dilutions: 1 μM, 0.1 μM, etc.
(§2) Following incubation of compound with the receptor preparation (from ‘Tissue’) and the Ligand at the time and temperature indicated, the receptor preparations were rapidly filtered under vacuum through glass fibre filters; the filters were washed extensively with an ice-cold buffer using a harvester. Bound radioactivity was measured by scintillation counting using a liquid scintillation cocktail.
(§3) Results were expressed as percentage of total Ligand binding and that of Non Specific Binding, per concentration of Compound tested (duplicates); from the concentration—displacement curves IC50 values were determined by non-linear regression analysis using Hill equation curve fitting. The inhibition constants (Ki) were calculated from the Cheng-Prushoff equation Ki=IC50/(1+L/Kd), where L is the concentration of radioligand in the assay, and Kd the affinity of the radioligand for the receptor. Results were expressed as pKi's, means±SD of at least 2 separate experiments; i.e. outliers (outside+/−1 std of mean) and discrepancies were excluded.

[3] = molecular target: T3, Muscarine M2 (GPCR-A-MA-ACH M2) (Cavia porcellus, UniProt H0VRN8); experiment: Muscarine M2 functional assay, isolated organ (left atrium, electrically paced), agonist and antagonist mode; parameters: species or system Guinea Pig; conditions: for EC50: read-out: Cell funct. Musc. M2 Agonism pEC50 (converted)
T3 construct: from tissue; host or cells: guinea pig left atrium (electrically paced)
T3 sequence (H0VRN8 1-466): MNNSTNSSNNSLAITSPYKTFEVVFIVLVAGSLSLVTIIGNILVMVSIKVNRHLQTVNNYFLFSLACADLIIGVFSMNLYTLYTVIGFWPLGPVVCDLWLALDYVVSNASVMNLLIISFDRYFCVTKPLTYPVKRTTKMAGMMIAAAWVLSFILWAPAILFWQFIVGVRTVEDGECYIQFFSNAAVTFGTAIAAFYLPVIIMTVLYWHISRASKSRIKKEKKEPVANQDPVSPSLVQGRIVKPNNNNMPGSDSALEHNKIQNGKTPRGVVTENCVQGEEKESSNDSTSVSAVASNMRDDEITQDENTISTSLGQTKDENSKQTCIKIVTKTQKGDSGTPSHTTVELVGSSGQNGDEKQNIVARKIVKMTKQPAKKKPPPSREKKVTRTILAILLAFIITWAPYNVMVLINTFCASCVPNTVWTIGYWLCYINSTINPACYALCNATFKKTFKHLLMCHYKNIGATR

[4] = molecular target: T4, Muscarine M3 (GPCR-A-MA-ACH M3) (Homo sapiens, UniProt P20309); experiment: Muscarine M3 receptor binding
T4 construct: expressed in transfected cells; host or cells: CHO cells

[5] = molecular target: T2, Muscarine M4 (GPCR-A-MA-ACH M4); experiment: Muscarine M4 cell-based functional assay (CHO cells, Ca2+ - Aequorin luminescence); conditions: for EC50: human M4, CHO cells, agonist mode, reference agonist oxotremorine, read-out: Cell funct. Musc. M4 Agonism pEC50 (converted)
Protocol: Compounds were dissolved in DMSO (10 mM) and diluted in assay buffer to test concentration. Prime testing was at 1 μM; for actives in antagonist mode (PI, percent inhibition with respect to reference agonist and blank>30%) as well as actives in agonist mode (PS, percent stimulation with respect to reference agonist and blank>30%) testing was continued at lower concentrations in 10-fold dilutions: 0.1 μM, 0.01 μM, etc.
Cells were incubated with compound and the response indicated was measured.
The results are expressed as a percent of reference agonist values and blanks in the presence of the test compound, percent stimulation for agonist mode; for the antagonist mode (test compound in the presence of reference agonist) as percent inhibition. The EC50 values (concentration causing a half-maximal stimulation of control values), IC50 values (concentration causing a half-maximal inhibition of control values) were determined by non-linear regression analysis of the concentration-response curves using Hill equation curve fitting.

[6] = molecular target: T2, Muscarine M4 (GPCR-A-MA-ACH M4); experiment: Muscarine M4 receptor binding, 3H-4DAMP; conditions: human M4, CHO cells, ligand 0.2 nM, 60 min/22° C.; for Ki: read-out: RB Musc. M4 3H-DAMP pKi (converted)
Protocol: as §1, §2, §3

[7] = molecular target: T5, Muscarine M1 (GPCR-A-MA-ACH M1) (Homo sapiens, UniProt P11229); experiment: Muscarine M1 cell-based functional assay (CHO cells, Ca2+ - FLIPR Fluorimetry); conditions: for EC50: read-out: Cell funct. Musc. M1 Agonism pEC50 (converted)
T5 construct: expressed in transfected cells; host or cells: CHO cells
T5 sequence (P11229 1-460): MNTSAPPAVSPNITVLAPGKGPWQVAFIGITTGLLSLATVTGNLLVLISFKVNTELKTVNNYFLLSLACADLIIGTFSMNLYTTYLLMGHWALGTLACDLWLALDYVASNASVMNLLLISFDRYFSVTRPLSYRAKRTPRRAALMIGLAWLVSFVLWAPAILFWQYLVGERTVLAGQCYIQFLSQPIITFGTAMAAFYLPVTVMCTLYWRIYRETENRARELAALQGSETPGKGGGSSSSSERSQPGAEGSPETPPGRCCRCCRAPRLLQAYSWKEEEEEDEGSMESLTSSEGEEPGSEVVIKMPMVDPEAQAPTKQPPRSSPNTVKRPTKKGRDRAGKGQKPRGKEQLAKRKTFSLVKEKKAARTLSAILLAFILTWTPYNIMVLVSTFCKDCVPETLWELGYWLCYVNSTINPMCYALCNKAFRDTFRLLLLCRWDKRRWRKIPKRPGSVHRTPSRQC

[8] = molecular target: T6, Muscarine M2 (GPCR-A-MA-ACH M2) (Homo sapiens, UniProt P08172); experiment: Muscarine M2 receptor binding
T6 construct: expressed in transfected cells; host or cells: CHO cells
T6 sequence (P08172 1-466): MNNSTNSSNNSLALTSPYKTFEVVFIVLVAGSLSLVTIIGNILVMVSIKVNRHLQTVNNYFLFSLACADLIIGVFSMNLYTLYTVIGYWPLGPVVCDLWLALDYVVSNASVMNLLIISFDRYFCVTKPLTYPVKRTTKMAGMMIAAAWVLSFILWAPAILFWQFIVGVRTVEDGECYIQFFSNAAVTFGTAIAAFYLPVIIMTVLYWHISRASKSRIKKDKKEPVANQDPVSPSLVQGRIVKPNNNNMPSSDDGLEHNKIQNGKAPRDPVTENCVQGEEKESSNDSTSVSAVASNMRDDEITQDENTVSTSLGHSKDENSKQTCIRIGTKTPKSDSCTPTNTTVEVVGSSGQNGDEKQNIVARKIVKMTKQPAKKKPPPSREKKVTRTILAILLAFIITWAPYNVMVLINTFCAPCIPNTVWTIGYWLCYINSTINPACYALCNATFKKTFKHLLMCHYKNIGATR

[9] = molecular target: T5, Muscarine M1 (GPCR-A-MA-ACH M1); experiment: Muscarine M1 receptor binding, 3H-Pirenzepine; conditions: human M1, CHO cells, ligand 2 nM, 60 min/22° C.; for Ki: read-out: RB Musc. M1 3H-Pirenzepine pKi (converted)
Protocol: as §1, §2, §3

[10] = read-out: Cell funct. Musc. M2 Antagonism pA2 (converted)
[11] = human M3, CHO cells, receptor binding
[12] = human M1, CHO cells, agonist mode, reference agonist acetylcholine
[13] = human M2, CHO cells, receptor binding

T4 sequence (P20309 whole entry): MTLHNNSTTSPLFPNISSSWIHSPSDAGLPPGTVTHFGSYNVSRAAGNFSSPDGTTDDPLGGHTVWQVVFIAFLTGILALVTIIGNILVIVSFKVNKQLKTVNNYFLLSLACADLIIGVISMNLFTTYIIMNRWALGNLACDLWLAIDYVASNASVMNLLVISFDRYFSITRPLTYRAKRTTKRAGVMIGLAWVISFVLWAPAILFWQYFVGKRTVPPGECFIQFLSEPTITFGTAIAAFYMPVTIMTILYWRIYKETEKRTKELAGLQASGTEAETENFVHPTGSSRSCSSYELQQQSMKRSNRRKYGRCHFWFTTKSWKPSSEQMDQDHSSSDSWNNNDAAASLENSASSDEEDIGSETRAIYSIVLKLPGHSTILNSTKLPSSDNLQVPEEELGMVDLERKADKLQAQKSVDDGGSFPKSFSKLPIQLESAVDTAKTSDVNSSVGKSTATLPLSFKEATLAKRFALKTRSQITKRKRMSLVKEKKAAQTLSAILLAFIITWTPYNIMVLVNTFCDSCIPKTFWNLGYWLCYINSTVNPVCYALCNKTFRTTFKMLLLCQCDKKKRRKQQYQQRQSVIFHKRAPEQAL
T1 sequence (H0W1Z3 1-590): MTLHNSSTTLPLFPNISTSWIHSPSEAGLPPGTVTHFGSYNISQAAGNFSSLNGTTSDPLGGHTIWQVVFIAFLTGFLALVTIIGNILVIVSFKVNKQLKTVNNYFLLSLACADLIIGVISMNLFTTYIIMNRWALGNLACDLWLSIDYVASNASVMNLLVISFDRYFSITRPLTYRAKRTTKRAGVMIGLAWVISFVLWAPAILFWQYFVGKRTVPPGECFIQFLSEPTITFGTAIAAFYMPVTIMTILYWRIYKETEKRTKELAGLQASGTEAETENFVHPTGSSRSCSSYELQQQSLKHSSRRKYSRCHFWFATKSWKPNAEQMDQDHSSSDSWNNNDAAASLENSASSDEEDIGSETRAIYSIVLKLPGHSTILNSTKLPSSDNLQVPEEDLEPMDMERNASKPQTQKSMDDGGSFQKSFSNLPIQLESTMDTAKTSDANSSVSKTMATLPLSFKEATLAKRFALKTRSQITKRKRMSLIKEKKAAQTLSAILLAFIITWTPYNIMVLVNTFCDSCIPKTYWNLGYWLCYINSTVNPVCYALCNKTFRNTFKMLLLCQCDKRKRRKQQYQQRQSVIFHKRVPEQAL

SMILES | Kb [1] [nM] | EC50 [1] [nM] | Ki [2] [nM] | EC50 [3] [nM] | Kb [3, 10] [nM] | pKi [4, 11] | EC50 [5] [nM] | Ki [6] [nM] | EC50 [7, 12] [nM] | pKi [8, 13] | Ki [9] [nM] | pKi [2] | Kb [3] [nM] | pKi [4] | EC50 [7] [nM] | pKi [8] | further results
CCCCCCSc1nc[nH]c1C1=CCCN(C)C1 [Compound 76B, 3-(5-Hexylsulfanyl-3H-imidazol-4-yl)-1,2,5,6-tetrahydro-1-methylpyridine] | > 1000 | > 1000 | 1000 | > 1000 | > 1000 | 5.60 | 1000 | 501 | 79.4 | 5.20 | 3980 |  |  |  |  |  | 
CCCCCSc1nc[nH]c1C1=CCCN(C)C1 [Compound 76A, 3-(5-Pentylsulfanyl-3H-imidazol-4-yl)-1,2,5,6-tetrahydro-1-methylpyridine] | > 1000 | > 1000 | 631 | > 1000 | > 1000 | 6.10 | 7940 | 316 | 126 | 5.30 | 2510 |  |  |  |  |  | 
CCCSc1c[nH]nc1C1CN2CCC1CC2 (stereo not shown) [Compound 49E, 3-(4-Propylsulfanyl-1H-pyrazol-3-yl)-1-azabicyclo[2.2.2]octane] | > 1000 | > 1000 |  | 794 |  |  |  | 39.8 |  |  | 316 | 7.10 | > 1000 | 6.90 | 10 | 6.30 | pEC50 [5]: 7.10
CN1CCC=C(c2n[nH]cc2SCCCCCSc2c[nH]nc2C2=CCCN(C)C2)C1 [Compound 22C] | > 1000 | > 1000 | 158 | > 1000 | > 1000 | 7.50 | > 10000 | 63.1 | > 1000 | 6.40 | 251 |  |  |  |  |  | 
c1ccc(CCSc2c[nH]nc2C2CN3CCC2CC3)cc1 (stereo not shown) [Compound 49G, 3-(4-Phenethylsulfanyl-1H-pyrazol-3-yl)-1-azabicyclo[2.2.2]octane] |  |  |  |  |  |  |  |  |  |  |  |  |  |  |  |  | Cell funct. Musc. M3 Agonism pEC50 [1]: <6; Cell funct. Musc. M3 Antagonism pA2 [1]: <6; RB Musc. M4 3H-Oxotremorine pKi [2]: 7.6; Cell funct. Musc. M2 Agonism pEC50 [3]: <6; Cell funct. Musc. M2 Antagonism pA2 [3]: <6; RB Musc M3 4-DAMP [4]: 6.5; Cell funct. Musc. M4 Agonism pEC50 [5]: 8.0; RB Musc. M4 3H-DAMP pKi [6]: 7.0; Cell funct. Musc. M1 Agonism pEC50 [7]: 7.3; RB Musc M2 methoctramine [8]: 6.1; RB Musc. M1 3H-Pirenzepine pKi [9]: 6.2
CCCCOc1c[nH]nc1C1CN2CCC1CC2 (stereo not shown) [Compound 52A, 3-(4-Butoxy-1H-pyrazol-3-yl)-1-azabicyclo[2.2.2]octane] | > 1000 | > 1000 |  | > 1000 |  |  |  | 251 |  |  | 794 | 6.90 | > 1000 | 6.10 | 20 | 5.40 | 
CCCCCCOc1c[nH]nc1C1=CCCN(C)C1 [Compound 33B, 3-(4-Hexyloxy-1H-pyrazol-3-yl]-1,2,5,6-tetrahydro-1-methylpyridine] | > 1000 | > 1000 | 200 | > 1000 | > 1000 | 6.40 | 501 | 316 | 100 | 5.90 | 1000 |  |  |  |  |  | 
CCCCCOc1c[nH]nc1C1CN2CCC1CC2 (stereo not shown) [Compound 52C, 3-(4-Pentyloxy-1H-pyrazol-3-yl)-1-azabicyclo[2.2.2]octane] | > 1000 | > 1000 |  | > 1000 |  |  |  | 251 |  |  | 1000 | 7.20 | > 1000 | 6.20 | 12.6 | 5.60 | 
CCCOc1c[nH]nc1C1CN2CCC1CC2 (stereo not shown) [Compound 52B, 3-(4-Propoxy-1H-pyrazol-3-yl)-1-azabicyclo[2.2.2]octane] | > 1000 | > 1000 |  | > 1000 |  |  |  | 126 |  |  | 631 | 7.20 | 25.1 | 6.50 | 7.94 | 5.90 | pEC50 [5]: 7.00
